# Test results from patent US20210317134A1, “UBIQUITIN-SPECIFIC-PROCESSING PROTEASE 7 (USP7) MODULATORS AND USES THEREOF” (RAPT THERAPEUTICS, INC., priority 2019, published 2021).
# Target: USP7 (Homo sapiens, UniProt Q93009)
# Assay: USP7 inhibitory potency (Table 1)
# Format: biochemical
# USP7, sequence (Q93009 whole entry): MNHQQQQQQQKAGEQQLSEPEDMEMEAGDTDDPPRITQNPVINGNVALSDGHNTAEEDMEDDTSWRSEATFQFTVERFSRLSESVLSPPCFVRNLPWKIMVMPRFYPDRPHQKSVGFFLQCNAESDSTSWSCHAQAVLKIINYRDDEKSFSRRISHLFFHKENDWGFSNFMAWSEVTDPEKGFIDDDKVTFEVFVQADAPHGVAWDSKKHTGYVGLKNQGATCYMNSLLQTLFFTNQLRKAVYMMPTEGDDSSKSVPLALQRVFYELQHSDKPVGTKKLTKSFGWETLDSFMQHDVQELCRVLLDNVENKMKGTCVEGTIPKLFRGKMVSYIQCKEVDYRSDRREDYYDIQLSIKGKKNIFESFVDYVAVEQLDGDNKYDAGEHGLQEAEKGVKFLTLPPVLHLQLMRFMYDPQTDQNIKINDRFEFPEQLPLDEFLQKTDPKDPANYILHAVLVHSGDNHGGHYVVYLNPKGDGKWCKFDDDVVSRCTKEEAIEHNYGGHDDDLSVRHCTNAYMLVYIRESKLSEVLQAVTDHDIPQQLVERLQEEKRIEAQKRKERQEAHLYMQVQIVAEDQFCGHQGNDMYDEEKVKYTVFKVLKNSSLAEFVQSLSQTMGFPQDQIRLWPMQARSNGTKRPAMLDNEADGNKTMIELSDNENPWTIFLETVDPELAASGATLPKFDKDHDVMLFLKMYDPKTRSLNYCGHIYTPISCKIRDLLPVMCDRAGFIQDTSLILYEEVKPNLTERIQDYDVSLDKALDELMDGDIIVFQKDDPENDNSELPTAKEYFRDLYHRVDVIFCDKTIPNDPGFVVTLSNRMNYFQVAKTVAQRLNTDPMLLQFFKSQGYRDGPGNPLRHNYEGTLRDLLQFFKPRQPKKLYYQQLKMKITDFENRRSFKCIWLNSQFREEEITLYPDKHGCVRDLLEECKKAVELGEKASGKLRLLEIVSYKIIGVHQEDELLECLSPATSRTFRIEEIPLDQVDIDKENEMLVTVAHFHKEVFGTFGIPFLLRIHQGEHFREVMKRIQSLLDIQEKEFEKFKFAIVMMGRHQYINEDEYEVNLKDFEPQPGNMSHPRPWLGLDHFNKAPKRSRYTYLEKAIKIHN
row,SMILES,IC50 [nM]
1,"Cc1ccc(S(=O)(=O)N2Cc3nccc(-c4cc(Cl)cc5c4O[C@@H](c4onc6c4CNCC6)C5)c3C2)cc1 [(R)-3-(5-chloro-7-(6-tosyl-6,7-dihydro-5H-pyrrolo[3,4-b]pyridin-4-yl)-2,3-dihydrobenzofuran-2-yl)-4,5,6,7-tetrahydroisoxazolo[4,3-c]pyridine]",10000 to 30000
2,"CC(C)(O)C1Cc2nccc(-c3cc(Cl)cc4c3O[C@@H](c3onc5c3CNCC5)C4)c2C1 (stereo partly drawn) [2-(4-((R)-5-chloro-2-(4,5,6,7-tetrahydroisoxazolo[4,3-c]pyridin-3-yl)-2,3-dihydrobenzofuran-7-yl)-6,7-dihydro-5H-cyclopenta[b]pyridin-6-yl)propan-2-ol]",1000 to 10000
3,"N#Cc1cc2nccc(-c3cc(Cl)cc4c3O[C@@H](C(=O)N3CCNCC3)C4)c2o1 [(R)-7-(5-chloro-2-(piperazine-1-carbonyl)-2,3-dihydrobenzofuran-7-yl)furo[3,2-b]pyridine-2-carbonitrile]",1000 to 10000
4,"N#Cc1cc2nccc(-c3cc(Cl)cc4c3O[C@@H](C(=O)N3CCNCC3)C4)c2s1 [(R)-7-(5-chloro-2-(piperazine-1-carbonyl)-2,3-dihydrobenzofuran-7-yl)thieno[3,2-b]pyridine-2-carbonitrile]",1000 to 10000
5,"O=C(C1Cc2cc(Cl)cc(-c3ccnc(Nc4ccccc4)c3)c2O1)N1CCNCC1 (stereo not shown) [(5-chloro-7-(2-(phenylamino)pyridin-4-yl)-2,3-dihydrobenzofuran-2-yl)(piperazin-1-yl)methanone]",10000 to 30000
6,"Cn1nc([C@H]2Cc3cc(Cl)cc(-c4ccnc5cc(Cl)ccc45)c3O2)c2c1CCNC2 [(R)-7-chloro-4-(5-chloro-2-(1-methyl-4,5,6,7-tetrahydro-1H-pyrazolo[4,3-c]pyridin-3-yl)-2,3-dihydrobenzofuran-7-yl)quinoline]",10000 to 30000
7,"O=C(C1Cc2cc(Cl)cc(-c3ccnc(NCCO)c3)c2O1)N1CCNCC1 (stereo not shown) [(5-chloro-7-(2-((2-hydroxyethyl)amino)pyridin-4-yl)-2,3-dihydrobenzofuran-2-yl)(piperazin-1-yl)methanone]",1000 to 10000
8,"C[C@@H]1CNCCN1C(=O)C1Cc2cc(Cl)cc(-c3ccnc4[nH]ccc34)c2O1 (stereo partly drawn) [(5-chloro-7-(1H-pyrrolo[2,3-b]pyridin-4-yl)-2,3-dihydrobenzofuran-2-yl)((R)-2-methylpiperazin-1-yl)methanone]",10000 to 30000
9,"CS(=O)(=O)N1CCc2noc([C@H]3Cc4cc(Cl)cc(-c5ncnc6ccoc56)c4O3)c2C1 [(R)-3-(5-chloro-7-(furo[3,2-d]pyrimidin-4-yl)-2,3-dihydrobenzofuran-2-yl)-5-(methylsulfonyl)-4,5,6,7-tetrahydroisoxazolo[4,3-c]pyridine]",1000 to 10000
10,"OCc1cc2nccc(-c3cc(Cl)cc4c3OC(c3nnn5c3CNCC5)C4)c2s1 (stereo not shown) [(7-(5-chloro-2-(4,5,6,7-tetrahydro-[1,2,3]triazolo[1,5-a]pyrazin-3-yl)-2,3-dihydrobenzofuran-7-yl)thieno[3,2-b]pyridin-2-yl)methanol]",1000 to 10000
11,"O=C(C1Cc2cc(Cl)cc(-c3ccnc4[nH]c(C5CC5)cc34)c2O1)N1CCNCC1 (stereo not shown) [(5-chloro-7-(2-cyclopropyl-1H-pyrrolo[2,3-b]pyridin-4-yl)-2,3-dihydrobenzofuran-2-yl)(piperazin-1-yl)methanone]",10000 to 30000
12,"O=C(C1Cc2cc(Cl)cc(-c3ccnc4ccc(F)cc34)c2O1)N1CCNCC1 (stereo not shown) [(5-chloro-7-(6-fluoroquinolin-4-yl)-2,3-dihydrobenzofuran-2-yl)(piperazin-1-yl)methanone]",1000 to 10000
13,"CCC(O)c1ccc2c(-c3cc(Cl)cc4c3O[C@@H](C(=O)N3CCNCC3)C4)ccnc2c1 (stereo partly drawn) [((2R)-5-chloro-7-(7-(1-hydroxypropyl)quinolin-4-yl)-2,3-dihydrobenzofuran-2-yl)(piperazin-1-yl)methanone]",1000 to 10000
14,"Cn1nc([C@H]2Cc3cc(Cl)cc(-c4ccnc5ccsc45)c3O2)c2c1CCNC2 [(R)-7-(5-chloro-2-(1-methyl-4,5,6,7-tetrahydro-1H-pyrazolo[4,3-c]pyridin-3-yl)-2,3-dihydrobenzofuran-7-yl)thieno[3,2-b]pyridine]",1000 to 10000

# The next lines start with the values.
row,IC50 [nM],SMILES
1,< 1000,"CC(C)S(=O)(=O)NCCc1cc2nccc(-c3cc(Cl)cc4c3O[C@@H](C(=O)N3CCNCC3)C4)c2s1 [(R)-N-(2-(7-(5-chloro-2-(piperazine-1-carbonyl)-2,3-dihydrobenzofuran-7-yl)thieno[3,2-b]pyridin-2-yl)ethyl)propane-2-sulfonamide]"
2,< 1000,"CN(C)[C@@H]1CCc2noc([C@H]3Cc4cc(Cl)cc(-c5ccnc6cc(CO)sc56)c4O3)c2C1 [(7-((R)-5-chloro-2-((R)-5-(dimethylamino)-4,5,6,7-tetrahydrobenzo[c]isoxazol-3-yl)-2,3-dihydrobenzofuran-7-yl)thieno[3,2-b]pyridin-2-yl)methanol]"
3,< 1000,"Clc1cc2c(c(-c3ccnc4ccnn34)c1)O[C@@H](c1onc3c1CNCC3)C2 [(R)-3-(5-chloro-7-(pyrazolo[1,5-a]pyrimidin-7-yl)-2,3-dihydrobenzofuran-2-yl)-4,5,6,7-tetrahydroisoxazolo[4,3-c]pyridine]"
4,< 1000,"CN(C)C1CCN(C(=O)[C@H]2Cc3cc(Cl)cc(-c4ccnc5ccsc45)c3O2)CC1 [(R)-(5-chloro-7-(thieno[3,2-b]pyridin-7-yl)-2,3-dihydrobenzofuran-2-yl)(4-(dimethylamino)piperidin-1-yl)methanone]"
5,< 1000,"CC(=O)NC(C)c1cc2nccc(-c3cc(Cl)cc4c3O[C@@H](c3onc5c3CNCC5)C4)c2s1 (stereo partly drawn) [N-(1-(7-((R)-5-chloro-2-(4,5,6,7-tetrahydroisoxazolo[4,3-c]pyridin-3-yl)-2,3-dihydrobenzofuran-7-yl)thieno[3,2-b]pyridin-2-yl)ethyl)acetamide]"
6,< 1000,"O=C1OCCN1Cc1cc2nccc(-c3cc(Cl)cc4c3O[C@@H](C(=O)N3CCNCC3)C4)c2s1 [(R)-3-((7-(5-chloro-2-(piperazine-1-carbonyl)-2,3-dihydrobenzofuran-7-yl)thieno[3,2-b]pyridin-2-yl)methyl)oxazolidin-2-one]"
7,< 1000,"CC1CC(=O)N(Cc2cc3nccc(-c4cc(Cl)cc5c4O[C@@H](C(=O)N4CCNCC4)C5)c3s2)C1=O (stereo partly drawn) [1-((7-((R)-5-chloro-2-(piperazine-1-carbonyl)-2,3-dihydrobenzofuran-7-yl)thieno[3,2-b]pyridin-2-yl)methyl)-3-methylpyrrolidine-2,5-dione]"
8,< 1000,"Cn1nc2c(c1[C@H]1Cc3cc(Cl)cc(-c4ncnc5ccoc45)c3O1)CNCC2 [(R)-4-(5-chloro-2-(2-methyl-4,5,6,7-tetrahydro-2H-pyrazolo[4,3-c]pyridin-3-yl)-2,3-dihydrobenzofuran-7-yl)furo[3,2-d]pyrimidine]"
9,< 1000,"Fc1ccc2c(-c3cc(Cl)cc4c3O[C@@H](c3onc5c3CNCC5)C4)ccnc2c1 [(R)-3-(5-chloro-7-(7-fluoroquinolin-4-yl)-2,3-dihydrobenzofuran-2-yl)-4,5,6,7-tetrahydroisoxazolo[4,3-c]pyridine]"
10,< 1000,"N#Cc1ccc2c(-c3cc(Cl)cc4c3OC(C(=O)N3CCNCC3)C4)ccnc2c1 (stereo not shown) [4-(5-chloro-2-(piperazine-1-carbonyl)-2,3-dihydrobenzofuran-7-yl)quinoline-7-carbonitrile]"
11,< 1000,"O=C([C@H]1CCc2cc(Cl)cc(-c3ccnc4cc(CO)sc34)c2O1)N1CCNCC1 [(R)-(6-chloro-8-(2-(hydroxymethyl)thieno[3,2-b]pyridin-7-yl)chroman-2-yl)(piperazin-1-yl)methanone]"
12,< 1000,"CC(=O)NC(C)Cc1cc2nccc(-c3cc(Cl)cc4c3O[C@@H](C(=O)N3CCNCC3)C4)c2s1 (stereo partly drawn) [N-(1-(7-((R)-5-chloro-2-(piperazine-1-carbonyl)-2,3-dihydrobenzofuran-7-yl)thieno[3,2-b]pyridin-2-yl)propan-2-yl)acetamide]"
13,< 1000,"O=C([C@H]1Cc2cc(Cl)cc(-c3ccnc4cc(Cn5cnccc5=O)sc34)c2O1)N1CCNCC1 [(R)-3-((7-(5-chloro-2-(piperazine-1-carbonyl)-2,3-dihydrobenzofuran-7-yl)thieno[3,2-b]pyridin-2-yl)methyl)pyrimidin-4(3H)-one]"
14,< 1000,"N#Cc1ccc2c(-c3cc(Cl)cc4c3O[C@@H](c3onc5c3CNCC5)C4)ccnc2c1 [(R)-4-(5-chloro-2-(4,5,6,7-tetrahydroisoxazolo[4,3-c]pyridin-3-yl)-2,3-dihydrobenzofuran-7-yl)quinoline-7-carbonitrile]"
15,< 1000,"OCc1cc2nccc(-c3cc(Cl)cc4c3O[C@@H](c3onc5c3CNCC5)CC4)c2s1 [(R)-(7-(6-chloro-2-(4,5,6,7-tetrahydroisoxazolo[4,3-c]pyridin-3-yl)chroman-8-yl)thieno[3,2-b]pyridin-2-yl)methanol]"
16,< 1000,"OC1(c2cc3nccc(-c4cc(Cl)cc5c4O[C@@H](c4onc6c4CNCC6)C5)c3s2)CCC1 [(R)-1-(7-(5-chloro-2-(4,5,6,7-tetrahydroisoxazolo[4,3-c]pyridin-3-yl)-2,3-dihydrobenzofuran-7-yl)thieno[3,2-b]pyridin-2-yl)cyclobutan-1-ol]"
17,< 1000,"N#Cc1cc2c(c(-c3ccnc4cc(CO)sc34)c1)O[C@@H](C(=O)N1CCNCC1)C2 [(R)-7-(2-(hydroxymethyl)thieno[3,2-b]pyridin-7-yl)-2-(piperazine-1-carbonyl)-2,3-dihydrobenzofuran-5-carbonitrile]"
18,< 1000,"O=C([C@H]1Cc2cc(Cl)cc(-c3ccnc4cc(CN5C(=O)CCNC5=O)sc34)c2O1)N1CCNCC1 [(R)-3-((7-(5-chloro-2-(piperazine-1-carbonyl)-2,3-dihydrobenzofuran-7-yl)thieno[3,2-b]pyridin-2-yl)methyl)dihydropyrimidine-2,4(1H,3H)-dione]"
19,< 1000,"CC(=O)NCc1cc2nccc(-c3cc(Cl)cc4c3O[C@@H](C(=O)N3CCNCC3)C4)c2s1 [(R)-N-((7-(5-chloro-2-(piperazine-1-carbonyl)-2,3-dihydrobenzofuran-7-yl)thieno[3,2-b]pyridin-2-yl)methyl)acetamide]"
20,< 1000,"CCC(NC(C)=O)c1cc2nccc(-c3cc(Cl)cc4c3O[C@@H](C(=O)N3CCNCC3)C4)c2s1 (stereo partly drawn) [N-(1-(7-((R)-5-chloro-2-(piperazine-1-carbonyl)-2,3-dihydrobenzofuran-7-yl)thieno[3,2-b]pyridin-2-yl)propyl)acetamide]"
